The values below come from article PMC8550792, “Evolution of kinase polypharmacology across HSP90 drug discovery” (Cell Chemical Biology, 2021).

What all share (experiment): biochemical
Holding throughout (format): biochemical

Assay [1] deals with T1, 382 unique human kinases (Homo sapiens, UniProt P30530).
T1 construct: purchased Reaction Biology (HotSpot contract assay)
T1 sequence (P30530 26-894): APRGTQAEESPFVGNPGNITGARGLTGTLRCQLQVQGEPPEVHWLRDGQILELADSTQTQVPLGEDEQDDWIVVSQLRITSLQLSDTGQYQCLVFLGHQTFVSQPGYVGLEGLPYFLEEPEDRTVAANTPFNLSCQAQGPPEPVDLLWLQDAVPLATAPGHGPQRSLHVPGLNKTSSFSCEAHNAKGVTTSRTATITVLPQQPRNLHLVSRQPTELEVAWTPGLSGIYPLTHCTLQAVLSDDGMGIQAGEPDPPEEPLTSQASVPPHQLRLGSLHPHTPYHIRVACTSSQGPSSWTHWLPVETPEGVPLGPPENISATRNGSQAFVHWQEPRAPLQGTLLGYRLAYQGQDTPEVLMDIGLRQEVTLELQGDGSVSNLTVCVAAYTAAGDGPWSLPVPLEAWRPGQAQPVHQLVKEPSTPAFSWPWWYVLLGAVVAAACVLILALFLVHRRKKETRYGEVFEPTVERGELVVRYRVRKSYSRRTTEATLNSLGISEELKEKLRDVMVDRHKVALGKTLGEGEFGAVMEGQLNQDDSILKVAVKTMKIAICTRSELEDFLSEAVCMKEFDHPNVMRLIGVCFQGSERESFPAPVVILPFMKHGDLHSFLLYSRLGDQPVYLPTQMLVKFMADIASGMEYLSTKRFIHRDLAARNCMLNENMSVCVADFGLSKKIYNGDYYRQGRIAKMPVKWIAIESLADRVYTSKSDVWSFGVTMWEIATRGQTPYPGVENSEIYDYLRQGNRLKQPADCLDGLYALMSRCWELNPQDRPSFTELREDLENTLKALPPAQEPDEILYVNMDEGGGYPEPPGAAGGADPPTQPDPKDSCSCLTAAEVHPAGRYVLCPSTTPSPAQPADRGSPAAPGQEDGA
The following applies: kinase AXL, compound 10 uM; for remaining activity at 10 µM: read-out: % Enzyme Activity (relative to DMSO controls).

In assay [2] the target is T2, 382 unique human kinases (Homo sapiens, UniProt P10398).
T2 construct: purchased Reaction Biology (HotSpot contract assay)
T2 sequence (P10398 1-606): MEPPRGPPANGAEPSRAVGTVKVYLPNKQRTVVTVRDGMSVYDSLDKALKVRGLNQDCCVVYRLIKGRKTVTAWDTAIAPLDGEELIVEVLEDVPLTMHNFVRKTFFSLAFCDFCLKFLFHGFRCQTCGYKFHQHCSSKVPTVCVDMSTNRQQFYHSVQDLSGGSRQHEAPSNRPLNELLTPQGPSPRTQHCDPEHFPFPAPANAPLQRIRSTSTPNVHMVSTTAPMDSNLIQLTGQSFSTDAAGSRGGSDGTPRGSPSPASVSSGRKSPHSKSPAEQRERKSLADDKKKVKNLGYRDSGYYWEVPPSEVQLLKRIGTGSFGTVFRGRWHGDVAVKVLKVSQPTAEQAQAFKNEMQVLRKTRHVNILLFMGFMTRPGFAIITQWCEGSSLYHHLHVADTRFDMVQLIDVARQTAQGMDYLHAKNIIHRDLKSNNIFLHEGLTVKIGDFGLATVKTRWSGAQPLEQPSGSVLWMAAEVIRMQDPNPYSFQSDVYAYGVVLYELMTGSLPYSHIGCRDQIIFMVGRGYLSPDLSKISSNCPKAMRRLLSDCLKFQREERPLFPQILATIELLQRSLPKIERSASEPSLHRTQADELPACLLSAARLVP
The conditions noted are these: compound at 10 uM, duplicate values.

Assay [3] addresses T3, 382 unique human kinases (Homo sapiens, UniProt P00533, G719D).
T3 construct: purchased Reaction Biology (HotSpot contract assay)
The conditions noted are these: EGFR (G719D), 10 uM; for remaining activity at 10 µM: read-out: % Enzyme Activity (relative to DMSO controls).

Assay [4] addresses T4, 382 unique human kinases (Homo sapiens, UniProt Q9H2K8).
T4 construct: purchased Reaction Biology (HotSpot contract assay)
T4 sequence (Q9H2K8 1-898): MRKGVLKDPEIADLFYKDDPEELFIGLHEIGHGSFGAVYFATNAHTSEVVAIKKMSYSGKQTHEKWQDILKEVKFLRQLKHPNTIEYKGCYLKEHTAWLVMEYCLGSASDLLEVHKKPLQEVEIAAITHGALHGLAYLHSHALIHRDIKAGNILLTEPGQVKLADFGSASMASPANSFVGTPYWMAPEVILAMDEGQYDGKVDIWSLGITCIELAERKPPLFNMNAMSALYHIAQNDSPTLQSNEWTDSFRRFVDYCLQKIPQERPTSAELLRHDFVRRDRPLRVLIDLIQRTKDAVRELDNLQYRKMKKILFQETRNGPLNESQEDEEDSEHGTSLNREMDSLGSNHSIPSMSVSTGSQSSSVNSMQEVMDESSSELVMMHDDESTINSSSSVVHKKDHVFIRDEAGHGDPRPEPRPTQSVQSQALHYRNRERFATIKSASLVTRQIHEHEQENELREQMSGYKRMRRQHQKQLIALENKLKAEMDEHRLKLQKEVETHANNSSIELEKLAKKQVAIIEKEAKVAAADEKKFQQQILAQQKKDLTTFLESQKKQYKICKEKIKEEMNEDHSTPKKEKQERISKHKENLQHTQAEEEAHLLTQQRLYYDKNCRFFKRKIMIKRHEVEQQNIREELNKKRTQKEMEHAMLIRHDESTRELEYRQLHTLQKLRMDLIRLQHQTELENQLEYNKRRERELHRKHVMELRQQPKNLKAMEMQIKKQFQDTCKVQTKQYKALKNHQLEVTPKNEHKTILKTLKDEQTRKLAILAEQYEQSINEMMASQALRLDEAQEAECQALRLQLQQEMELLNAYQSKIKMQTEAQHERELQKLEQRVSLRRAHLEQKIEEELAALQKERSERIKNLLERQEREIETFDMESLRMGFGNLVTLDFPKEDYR
The following applies: TAOK3/JIK, 10 uM; for remaining activity at 10 µM: read-out: % Enzyme Activity (relative to DMSO controls).

Read-outs that look alike come from different tables or passages of the source.

Take `CC(C)c1cc(-c2n[nH]c(=O)n2-c2ccc3c(ccn3C)c2)c(O)cc1O` [Ganetespib (STA9090)]: the remaining activity at 10 µM in assay [1] stood at 84%; in assay [2] (read-out: % Enzyme Activity (relative to DMSO controls), ARAF), 158%.
With `CC(C)c1cc(-c2n[nH]c(=O)n2-c2ccc3c(ccn3C)c2)c(O)cc1O` [Ganetespib], the values for the remaining activity at 10 µM in assay [3] and in assay [4] were 104% and 126%, respectively.
As for `CCNC(=O)c1noc(-c2cc(C(C)C)c(O)cc2O)c1-c1ccc(CN2CCOCC2)cc1` [Luminespib (AUY-922)], the entries for the “% Enzyme Activity (relative to DMSO controls)” value in assay [1] and in assay [2] (ARAF) were 97.82% and 107.23%, respectively. Further, the remaining activity at 10 µM in assay [1] was found to be 98.9%; in assay [2] (ARAF, read-out: % Enzyme Activity (relative to DMSO controls)), 107%.
In the case of `CCNC(=O)c1noc(-c2cc(C(C)C)c(O)cc2O)c1-c1ccc(CN2CCOCC2)cc1` [Luminespib], in assay [3], the “% Enzyme Activity (relative to DMSO controls)” value was 97.19% and the remaining activity at 10 µM amounted to 99%. Further, in assay [4], the “% Enzyme Activity (relative to DMSO controls)” value is recorded as 98.33% and the remaining activity at 10 µM is 100%.
